Our source for the IC50 values is patent US20220033397A1, “PHARMACEUTICAL COMPOUNDS AND THEIR USE AS INHIBITORS OF UBIQUITIN SPECIFIC PROTEASE 19 (USP19)” (ALMAC DISCOVERY LIMITED, priority 2018, published 2022).

For this assay, the target named is T1, Full-length USP19 (Homo sapiens, UniProt O94966).
T1 construct: Full-length USP19 was purchased from Boston Biochem (E-576); purchased Boston Biochem E-576
T1 sequence (O94966 1-1318): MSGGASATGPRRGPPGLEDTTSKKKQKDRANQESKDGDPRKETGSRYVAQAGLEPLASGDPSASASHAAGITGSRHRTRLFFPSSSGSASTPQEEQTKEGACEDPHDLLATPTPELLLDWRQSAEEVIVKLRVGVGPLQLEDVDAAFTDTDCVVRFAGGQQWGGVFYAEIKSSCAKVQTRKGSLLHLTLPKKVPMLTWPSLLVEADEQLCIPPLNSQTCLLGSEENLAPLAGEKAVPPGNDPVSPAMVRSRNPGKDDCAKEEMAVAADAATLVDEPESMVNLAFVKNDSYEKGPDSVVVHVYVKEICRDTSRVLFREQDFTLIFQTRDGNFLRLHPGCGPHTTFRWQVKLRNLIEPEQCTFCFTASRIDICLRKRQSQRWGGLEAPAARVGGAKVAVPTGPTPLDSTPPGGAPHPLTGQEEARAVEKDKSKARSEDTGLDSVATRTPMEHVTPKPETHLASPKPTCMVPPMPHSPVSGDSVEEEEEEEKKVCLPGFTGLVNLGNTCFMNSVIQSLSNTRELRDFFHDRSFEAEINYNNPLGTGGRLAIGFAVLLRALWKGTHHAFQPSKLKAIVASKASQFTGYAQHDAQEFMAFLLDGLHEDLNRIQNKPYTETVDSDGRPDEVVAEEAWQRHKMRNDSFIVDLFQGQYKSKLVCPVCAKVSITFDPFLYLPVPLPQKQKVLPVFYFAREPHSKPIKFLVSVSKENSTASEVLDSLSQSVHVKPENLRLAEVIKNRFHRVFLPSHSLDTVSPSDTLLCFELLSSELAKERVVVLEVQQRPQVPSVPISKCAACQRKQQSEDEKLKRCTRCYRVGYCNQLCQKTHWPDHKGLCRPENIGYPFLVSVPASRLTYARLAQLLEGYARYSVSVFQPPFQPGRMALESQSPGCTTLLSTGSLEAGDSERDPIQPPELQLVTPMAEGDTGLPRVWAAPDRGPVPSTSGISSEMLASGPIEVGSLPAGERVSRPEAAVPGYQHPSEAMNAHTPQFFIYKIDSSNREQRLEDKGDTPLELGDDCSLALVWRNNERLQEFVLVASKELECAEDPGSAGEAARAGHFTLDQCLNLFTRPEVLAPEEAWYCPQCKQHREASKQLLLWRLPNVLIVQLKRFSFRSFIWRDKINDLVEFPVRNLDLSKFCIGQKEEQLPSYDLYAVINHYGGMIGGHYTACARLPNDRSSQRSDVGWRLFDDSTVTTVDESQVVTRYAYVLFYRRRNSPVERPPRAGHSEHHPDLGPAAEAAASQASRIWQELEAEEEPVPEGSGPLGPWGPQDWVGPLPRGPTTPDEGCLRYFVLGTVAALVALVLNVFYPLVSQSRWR
Description: USP19 fluorescence polarisation (FP) homogeneous assay with Ubiquitin-Lys-TAMRA substrate. The class given is biochemical. Conditions: 2.5 nM USP19, 30 min pre-incubation, average of at least two duplicate experiments. The procedure, abridged:
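Full-length USP19 preincubated 30 min at RT with inhibitor (200 μM to 2 μM series, 8–18 points) before adding 500 nM Ubiquitin-Lys-TAMRA substrate.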
A general note: Fluorescence polarisation rises when a labelled molecule tumbles more slowly, as on binding a larger partner.

As usually defined, the pIC50 is the IC50 on a negative log10 scale, so that one unit is a factor of ten.

pIC50: −log10 of the molar value.

As for `O=C(N1CC[C@@](O)(Cn2cnc(C3CC3)cc2=O)C2(CCCC2)C1)N1CCOC[C@H]1c1ccccc1` [Example 222, 6-Cyclopropyl-3-(((S)-10-hydroxy-7-((R)-3-phenylmorpholine-4-carbonyl)-7-azaspiro[4.5]decan-10-yl)methyl)pyrimidin-4(3H)-one], the negative logarithm of the IC50 (pIC50) was above 6.30.

With `O=C(N1CC[C@@](O)(Cn2cnc(N3CCCC3)cc2=O)C2(CCCC2)C1)N1CCOC[C@H]1c1ccccc1` [Example 223, 3-(((S)-10-Hydroxy-7-((R)-3-phenylmorpholine-4-carbonyl)-7-azaspiro[4.5]decan-10-yl)methyl)-6-(pyrrolidin-1-yl)pyrimidin-4(3H)-one], the negative logarithm of the IC50 (pIC50) was above 6.30.

As for `Cn1nccc1-c1cc(=O)n(C[C@]2(O)CCN(C(=O)N3CCOC[C@H]3c3ccccc3)CC23CCCC3)cn1` [Example 224, 3-(((S)-10-Hydroxy-7-((R)-3-phenylmorpholine-4-carbonyl)-7-azaspiro[4.5]decan-10-yl)methyl)-6-(1-methyl-1H-pyrazol-5-yl)pyrimidin-4(3H)-one], the pIC50 is above 6.30.

As for `Cn1cc(-c2cc(=O)n(C[C@]3(O)CCN(C(=O)N4CCOC[C@H]4c4ccccc4)CC34CCCC4)cn2)cn1` [Example 225, 3-(((S)-10-Hydroxy-7-((R)-3-phenylmorpholine-4-carbonyl)-7-azaspiro[4.5]decan-10-yl)methyl)-6-(1-methyl-1H-pyrazol-4-yl)pyrimidin-4(3H)-one], the negative-log IC50 (pIC50) was above 6.30.

Regarding `CN(C)c1cc(=O)n(C[C@]2(O)CCN(C(=O)N3CCOC[C@H]3c3ccccc3)CC23CCCC3)cn1` [Example 226, 6-(Dimethylamino)-3-(((S)-10-hydroxy-7-((R)-3-phenylmorpholine-4-carbonyl)-7-azaspiro[4.5]decan-10-yl)methyl)pyrimidin-4(3H)-one], the pIC50 was above 6.30.

Regarding `O=C(N1CCC(C(F)(F)F)C1)N1CC[C@@](O)(Cn2cnc(-c3ccccc3)cc2=O)C2(CCCC2)C1` (stereo partly drawn) [Example 227, 3-(((10S)-10-Hydroxy-7-(3-(trifluoromethyl)pyrrolidine-1-carbonyl)-7-azaspiro[4.5]decan-10-yl)methyl)-6-phenylpyrimidin-4(3H)-one], the pIC50 was 5.30 to 6.30.

As to `O=C(N1CC[C@@](O)(Cn2cnc(-c3ccccc3)cc2=O)C2(CCCC2)C1)N1CCOC[C@H]1c1ccc(F)cc1` [Example 228, 3-(((S)-7-((R)-3-(4-Fluorophenyl)morpholine-4-carbonyl)-10-hydroxy-7-azaspiro[4.5]decan-10-yl)methyl)-6-phenylpyrimidin-4(3H)-one], the pIC50 was above 6.30.

In the case of `O=C(N1CCC(O)(Cn2cnc(-c3ccccc3)cc2=O)C2(CCCC2)C1)N1CCOCC1CC1CC1` (centres unmarked) [Example 229, 3-((7-(3-(Cyclopropylmethyl)morpholine-4-carbonyl)-10-hydroxy-7-azaspiro[4.5]decan-10-yl)methyl)-6-phenylpyrimidin-4(3H)-one], the negative-log IC50 (pIC50) is 4.30 to 5.30.

For the molecule `O=C(N1CCC(O)(Cn2cnc(-c3ccccc3)cc2=O)C2(CCCC2)C1)N1CCOCC1C1CCC1` (centres unmarked) [Example 230, 3-((7-(3-Cyclobutylmorpholine-4-carbonyl)-10-hydroxy-7-azaspiro[4.5]decan-10-yl)methyl)-6-phenylpyrimidin-4(3H)-one], the pIC50 was 3.60 to 4.30.

As to `COCC1COCCN1C(=O)N1CCC(O)(Cn2cnc(-c3ccccc3)cc2=O)C2(CCCC2)C1` (centres unmarked) [Example 231, 3-((10-Hydroxy-7-(3-(methoxymethyl)morpholine-4-carbonyl)-7-azaspiro[4.5]decan-10-yl)methyl)-6-phenylpyrimidin-4(3H)-one], the negative logarithm of the IC50 (pIC50) is 4.30 to 5.30.

Regarding `CN(Cc1ccoc1)C(=O)N1CCC(O)(Cn2cnc(-c3ccccc3)cc2=O)C2(CCCC2)C1` (centres unmarked) [Example 232, N-(Furan-3-ylmethyl)-10-hydroxy-N-methyl-10-((6-oxo-4-phenylpyrimidin-1(6H)-yl)methyl)-7-azaspiro[4.5]decane-7-carboxamide], the negative logarithm of the IC50 (pIC50) was 5.30 to 6.30.

For `CC1CCCN1C(=O)N1CCC(O)(Cn2cnc(-c3ccccc3)cc2=O)C2(CCCC2)C1` (centres unmarked) [Example 233, 3-((10-Hydroxy-7-(2-methylpyrrolidine-1-carbonyl)-7-azaspiro[4.5]decan-10-yl)methyl)-6-phenylpyrimidin-4(3H)-one], the pIC50 was 4.30 to 5.30.

For `CN(C(=O)N1CCC(O)(Cn2cnc(-c3ccccc3)cc2=O)C2(CCCC2)C1)C1CCC1` (centres unmarked) [Example 234, N-Cyclobutyl-10-hydroxy-N-methyl-10-((6-oxo-4-phenylpyrimidin-1(6H)-yl)methyl)-7-azaspiro[4.5]decane-7-carboxamide], the negative logarithm of the IC50 (pIC50) was 4.30 to 5.30.

In the case of `O=C(N1CCC(O)(Cn2cnc(-c3ccccc3)cc2=O)C2(CCCC2)C1)N1CCOCC1c1cccs1` (centres unmarked) [Example 235, 3-((10-Hydroxy-7-(3-(thiophen-2-yl)morpholine-4-carbonyl)-7-azaspiro[4.5]decan-10-yl)methyl)-6-phenylpyrimidin-4(3H)-one], the pIC50 is above 6.30.

In the case of `O=C(N1CCC(O)(Cn2cnc(-c3ccccc3)cc2=O)C2(CCCC2)C1)N1CCC12CCOC2` (centres unmarked) [Example 236, 3-((10-Hydroxy-7-(6-oxa-1-azaspiro[3.4]octane-1-carbonyl)-7-azaspiro[4.5]decan-10-yl)methyl)-6-phenylpyrimidin-4(3H)-one], the pIC50 was 4.30 to 5.30.

As to `O=C(N1CCC(C2CC2)C1)N1CCC(O)(Cn2cnc(-c3ccccc3)cc2=O)C2(CCCC2)C1` (centres unmarked) [Example 237, 3-((7-(3-Cyclopropylpyrrolidine-1-carbonyl)-10-hydroxy-7-azaspiro[4.5]decan-10-yl)methyl)-6-phenylpyrimidin-4(3H)-one], the negative logarithm of the IC50 (pIC50) is 4.30 to 5.30.

For the molecule `CN(Cc1ccns1)C(=O)N1CCC(O)(Cn2cnc(-c3ccccc3)cc2=O)C2(CCCC2)C1` (centres unmarked) [Example 238, 10-Hydroxy-N-(isothiazol-5-ylmethyl)-N-methyl-10-((6-oxo-4-phenylpyrimidin-1(6H)-yl)methyl)-7-azaspiro[4.5]decane-7-carboxamide], the negative logarithm of the IC50 (pIC50) was 4.30 to 5.30.

As for `CN(CC1CC(F)C1)C(=O)N1CCC(O)(Cn2cnc(-c3ccccc3)cc2=O)C2(CCCC2)C1` (centres unmarked) [Example 239, N-((3-Fluorocyclobutyl)methyl)-10-hydroxy-N-methyl-10-((6-oxo-4-phenylpyrimidin-1(6H)-yl)methyl)-7-azaspiro[4.5]decane-7-carboxamide], the negative logarithm of the IC50 (pIC50) was 4.30 to 5.30.

Take `CC1(C)CCCN1C(=O)N1CCC(O)(Cn2cnc(-c3ccccc3)cc2=O)C2(CCCC2)C1` (centres unmarked) [Example 240, 3-((7-(2,2-Dimethylpyrrolidine-1-carbonyl)-10-hydroxy-7-azaspiro[4.5]decan-10-yl)methyl)-6-phenylpyrimidin-4(3H)-one]: the pIC50 is 4.30 to 5.30.

In the case of `O=C(N1CCC(C(F)F)CC1)N1CCC(O)(Cn2cnc(-c3ccccc3)cc2=O)C2(CCCC2)C1` (centres unmarked) [Example 241, 3-((7-(4-(Difluoromethyl)piperidine-1-carbonyl)-10-hydroxy-7-azaspiro[4.5]decan-10-yl)methyl)-6-phenylpyrimidin-4(3H)-one], the pIC50 was 4.30 to 5.30.

On to `CN(Cc1ccco1)C(=O)N1CCC(O)(Cn2cnc(-c3ccccc3)cc2=O)C2(CCCC2)C1` (centres unmarked) [Example 242, N-(Furan-2-ylmethyl)-10-hydroxy-N-methyl-10-((6-oxo-4-phenylpyrimidin-1(6H)-yl)methyl)-7-azaspiro[4.5]decane-7-carboxamide], for which the pIC50 was 3.60 to 4.30.

With `O=C(N1CCC(O)(Cn2cnc(-c3ccccc3)cc2=O)C2(CCCC2)C1)N1CCOC2CC21` (centres unmarked) [Example 243, 3-((7-(2-Oxa-5-azabicyclo[4.1.0]heptane-5-carbonyl)-10-hydroxy-7-azaspiro[4.5]decan-10-yl)methyl)-6-phenylpyrimidin-4(3H)-one], the pIC50 was 4.30 to 5.30.

Turning to `CN(Cc1cccnc1)C(=O)N1CCC(O)(Cn2cnc(-c3ccccc3)cc2=O)C2(CCCC2)C1` (centres unmarked) [Example 244, 10-Hydroxy-N-methyl-10-((6-oxo-4-phenylpyrimidin-1(6H)-yl)methyl)-N-(pyridin-3-ylmethyl)-7-azaspiro[4.5]decane-7-carboxamide], the pIC50 was 4.30 to 5.30.
